Measured values reported in patent US20240279207A1, “SUBSTITUTED ACYL SULFONAMIDES FOR TREATING CANCER” (The Broad Institute, Inc., priority 2020, published 2024).
Like-named read-outs stand apart in the source and are kept apart here.

What was measured:
[1] = system: ESR1 transcription in MVLN cells; experiment: MVLN reporter assay: repression of ESR1 transcription (luciferase signal); format: cell-based; conditions: luciferase signal after 24 h, read-out: MVLN reporter assay, IC50 [M] (arithmetic mean)
How it was run: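 MVLN cells, expressing ER and stably carrying a vitellogenin A2 ERE-luciferase reporter, treated with compound in duplicate; luciferase read after 24 h with Steadylite plus. Cell density checked in parallel by Alamar Blue fluorescence (530/590 nm, 2 h) before the luciferase read.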

[2] = target: T1, Recombinant human GST-tagged Kat6b protein (431-end) (Homo sapiens, UniProt Q8WYB5); experiment: Kat6b activity assay (TR-FRET, acetylation of Histone-H4-derived peptide); format: biochemical; conditions: 30 mins at 22° C., 500 nM H4 peptide, 600 nM Acetyl Coenzyme A, read-out: KAT6B activity assay IC50 [mol/l] (arithmetic mean)
T1 construct: Kat6b protein (431-end, N-terminal GST-tag); GST (N)
Procedure: Kat6b inhibitory activities of the compounds described in the present invention were quantified using a Fluorescence Resonance Energy Transfer (TR-FRET) assay which measures acetylation of a synthetic, biotinylated Histone-H4-derived peptide by the enzyme.
In this case 50 nl DMSO were used instead of compounds. […] IC50 values were determined by regression analysis based on a 4 parameter equation (minimum, maximum, ICM, Hill; Y=Max+(Min−Max)/(1+(X/ICso) Hill) using the Screener Software (Genedata).

LCLC97TM1 = LCLC97TM1 proliferation assay; format: cell-based; conditions: read-out: LCLC97TM1 proliferation assay, EC50 [M] (arithmetic mean)
ZR-75-1 cells = experiment: ZR-75-1 proliferation assay; format: cell-based; conditions: Alamar Blue, read-out: ZR75-1 proliferation assay, EC50 [M] (arithmetic mean)
How it was run: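 ZR-75-1 cells (focal KAT6A amplification), 3000 per well in RPMI 1640 with 2.5% FBS, were exposed to compound in triplicate for 144 h at 37 °C, 5% CO2. Viability read by Alamar Blue fluorescence at 590 nm after 2 h.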

[3] = target: T2, Recombinant human His-tagged Kat6a protein (amino acids 194-810) (Homo sapiens, UniProt Q92794); experiment: Kat6a activity assay (TR-FRET, acetylation of Histone-H4-derived peptide); format: biochemical; conditions: 60 mins at 22° C., 220 nM H4 peptide, 600 nM Acetyl Coenzyme A, read-out: KAT6A - DPF/HAT domain IC50 [mol/l] (arithmetic mean)
T2 construct: Kat6a protein (amino acids 194-810); His

MDA-MB-436 cells = experiment: MDA-MB-436 proliferation assay (negative control cell line); format: cell-based; conditions: 144 h, Alamar Blue, read-out: MDA-MB-436 proliferation assay, EC50 [M] (arithmetic mean)
How it was run: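 MDA-MB-436 cells (KAT6A deletion, low KAT6A protein) seeded at 3000 cells/well in DMEM/Ham's F12 with 2.5% FBS, treated in triplicate for 144 h at 37° C, 5% CO2. Viability read by Alamar Blue fluorescence at 590 nm after 2 h.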

[4] = Homo sapiens, LCLC-97TM1, LCLC97TM1

T2 sequence (Q92794 194-810): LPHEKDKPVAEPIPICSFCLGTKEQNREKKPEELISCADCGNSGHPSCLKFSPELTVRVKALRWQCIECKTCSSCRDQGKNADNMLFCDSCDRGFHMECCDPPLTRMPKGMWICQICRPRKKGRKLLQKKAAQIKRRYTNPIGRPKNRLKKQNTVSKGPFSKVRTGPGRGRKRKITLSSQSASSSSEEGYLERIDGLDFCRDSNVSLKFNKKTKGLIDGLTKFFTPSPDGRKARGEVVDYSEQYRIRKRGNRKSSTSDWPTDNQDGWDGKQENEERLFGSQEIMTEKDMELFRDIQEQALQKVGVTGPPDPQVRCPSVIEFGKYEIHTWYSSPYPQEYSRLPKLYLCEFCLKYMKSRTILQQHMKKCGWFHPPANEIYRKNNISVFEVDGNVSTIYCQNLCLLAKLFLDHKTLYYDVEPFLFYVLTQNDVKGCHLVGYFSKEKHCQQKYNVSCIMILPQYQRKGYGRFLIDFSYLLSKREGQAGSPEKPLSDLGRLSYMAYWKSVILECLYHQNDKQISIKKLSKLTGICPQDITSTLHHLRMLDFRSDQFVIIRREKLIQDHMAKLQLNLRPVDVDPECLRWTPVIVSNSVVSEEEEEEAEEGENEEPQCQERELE
T1 sequence (Q8WYB5 431-2073): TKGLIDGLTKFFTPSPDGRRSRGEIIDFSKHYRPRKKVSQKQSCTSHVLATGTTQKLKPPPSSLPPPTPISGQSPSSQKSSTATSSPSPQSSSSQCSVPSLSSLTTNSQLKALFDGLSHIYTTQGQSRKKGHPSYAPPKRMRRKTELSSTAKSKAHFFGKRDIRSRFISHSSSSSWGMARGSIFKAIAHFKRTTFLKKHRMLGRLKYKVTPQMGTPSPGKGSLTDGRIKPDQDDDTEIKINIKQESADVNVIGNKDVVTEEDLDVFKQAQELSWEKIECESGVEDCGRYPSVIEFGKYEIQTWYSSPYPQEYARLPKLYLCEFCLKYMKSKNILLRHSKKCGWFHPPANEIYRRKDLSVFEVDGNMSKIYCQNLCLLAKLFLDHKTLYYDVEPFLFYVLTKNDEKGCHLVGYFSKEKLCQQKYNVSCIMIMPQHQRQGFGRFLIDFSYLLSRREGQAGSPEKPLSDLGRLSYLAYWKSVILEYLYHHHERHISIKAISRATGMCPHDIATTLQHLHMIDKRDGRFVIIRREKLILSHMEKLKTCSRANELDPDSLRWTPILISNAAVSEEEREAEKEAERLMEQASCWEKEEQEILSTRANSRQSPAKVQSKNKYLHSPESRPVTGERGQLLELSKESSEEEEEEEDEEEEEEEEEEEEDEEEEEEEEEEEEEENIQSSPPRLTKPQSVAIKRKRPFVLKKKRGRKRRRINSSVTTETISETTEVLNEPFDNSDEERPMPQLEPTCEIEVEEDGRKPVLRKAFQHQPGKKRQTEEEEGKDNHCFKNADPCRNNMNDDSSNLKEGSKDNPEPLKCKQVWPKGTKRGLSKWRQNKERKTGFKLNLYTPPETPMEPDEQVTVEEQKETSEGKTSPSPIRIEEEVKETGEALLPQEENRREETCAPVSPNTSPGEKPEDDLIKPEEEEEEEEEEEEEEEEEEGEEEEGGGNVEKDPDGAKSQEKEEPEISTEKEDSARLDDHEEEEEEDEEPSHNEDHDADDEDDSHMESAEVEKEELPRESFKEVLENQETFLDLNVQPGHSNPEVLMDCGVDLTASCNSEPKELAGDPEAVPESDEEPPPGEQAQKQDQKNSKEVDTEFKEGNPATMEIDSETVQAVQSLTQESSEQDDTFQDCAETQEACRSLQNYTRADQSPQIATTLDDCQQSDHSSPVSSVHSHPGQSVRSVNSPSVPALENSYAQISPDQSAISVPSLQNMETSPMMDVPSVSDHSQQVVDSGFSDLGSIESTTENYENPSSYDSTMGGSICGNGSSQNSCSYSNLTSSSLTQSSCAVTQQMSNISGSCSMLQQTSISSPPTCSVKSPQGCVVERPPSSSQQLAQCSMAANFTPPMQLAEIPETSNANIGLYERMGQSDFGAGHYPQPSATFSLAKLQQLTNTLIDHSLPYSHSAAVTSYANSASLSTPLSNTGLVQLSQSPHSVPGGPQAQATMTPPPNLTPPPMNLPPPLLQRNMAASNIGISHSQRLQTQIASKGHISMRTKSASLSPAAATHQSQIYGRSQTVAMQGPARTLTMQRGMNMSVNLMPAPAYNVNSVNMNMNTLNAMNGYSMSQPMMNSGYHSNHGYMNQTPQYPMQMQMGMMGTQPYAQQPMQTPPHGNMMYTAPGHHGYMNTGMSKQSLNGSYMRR

SMILES | IC50 ([1]; Homo sapiens, MVLN, 24 h) [M] | IC50 [2] [nM] | IC50 [3] [nM] | EC50 (MDA-MB-436 cells; Homo sapiens) [M] | IC50 [1] [M] | EC50 (MDA-MB-436 cells) [M] | EC50 (LCLC97TM1; [4]) [M] | EC50 (ZR-75-1 cells; Homo sapiens, ZR-75-1, 144 h) [M] | EC50 (LCLC97TM1; LCLC97TM1) [M] | EC50 (ZR-75-1 cells; 144 h) [M]
CCOc1ccc(C(C)(C)C)cc1S(=O)(=O)NC(=O)c1cc2c(F)cc(N3CC(F)C3)cc2o1 [Example 113, N-(5-tert-butyl-2-ethoxybenzene-1-sulfonyl)-4-fluoro-6-(3-fluoroazetidin-1-yl)-1-benzofuran-2-carboxamide] | 1.08e-08 | 11.6 | 4.48 | > 2e-05 | – | – | 3.7e-08 | 2.94e-08 | – | –
CCOc1ccccc1S(=O)(=O)NC(=O)c1cc2c(F)cc(N3CCC3)cc2o1 [Example 126, Sodium [6-(azetidin-1-yl)-4-fluoro-1-benzofuran-2-carbonyl](2-ethoxybenzene-1-sulfonyl)azanide] | – | 285 | 56.5 | – | 9.43e-08 | > 2e-05 | – | – | 1.12e-06 | 3.07e-07
CCOc1ccc(C(C)C)cc1S(=O)(=O)NC(=O)c1cc2c(F)cc(N3CCC3)cc2o1 [Example 128, 6-(Azetidin-1-yl)-N-[2-ethoxy-5-(propan-2-yl)benzene-1-sulfonyl]-4-fluoro-1-benzofuran-2-carboxamide] | 1.9e-08 | 15.1 | 8.15 | > 2e-05 | – | – | 2.2e-07 | 6.73e-08 | – | –
CC(C)(C)c1ccc(OC2CCC2)c(S(=O)(=O)NC(=O)c2cc3c(F)cc(N4CCC4)cc3o2)c1 [Example 228, 6-(Azetidin-1-yl)-N-[(5-(tert-butyl)-2-cyclobutoxyphenyl)sulfonyl]-4-fluorobenzofuran-2-carboxamide] | 2.39e-08 | 13.4 | 2.57 | > 2e-05 | – | – | 1.67e-07 | 1.16e-07 | – | –
CCOc1cccc(OC)c1S(=O)(=O)NC(=O)c1cc2c(F)cc(N3CCC3)cc2o1 [Example 1, 6-(Azetidin-1-yl)-N-(2-ethoxy-6-methoxybenzene-1-sulfonyl)-4-fluoro-1-benzofuran-2-carboxamide] | 3.89e-08 | 20.9 | 8.61 | > 2e-05 | – | – | 2.13e-07 | 7.18e-08 | – | –
CCOc1ccccc1S(=O)(=O)NC(=O)c1cc2c(F)cc(N3CCC3)cc2o1 [Example 2, 6-(Azetidin-1-yl)-N-(2-ethoxybenzene-1-sulfonyl)-4-fluoro-1-benzofuran-2-carboxamide] | 5.54e-08 | 95.2 | 45.2 | > 2e-05 | – | – | – | 1.64e-07 | 3.38e-07 | –

Second part, led by results:

IC50 ([1]; Homo sapiens, MVLN, 24 h) [M] | IC50 [2] [nM] | IC50 [3] [nM] | EC50 (MDA-MB-436 cells; Homo sapiens) [M] | IC50 [1] [M] | EC50 (MDA-MB-436 cells) [M] | SMILES | EC50 (LCLC97TM1; [4]) [M] | EC50 (ZR-75-1 cells; Homo sapiens, ZR-75-1, 144 h) [M] | EC50 (LCLC97TM1; LCLC97TM1) [M] | EC50 (ZR-75-1 cells; 144 h) [M]
2.74e-08 | 51.8 | 36.4 | > 2e-05 | – | – | CC(C)Oc1ccccc1S(=O)(=O)NC(=O)c1cc2c(F)cc(N3CCC3)cc2o1 [Example 129, 6-(Azetidin-1-yl)-4-fluoro-N-{2-[(propan-2-yl)oxy]benzene-1-sulfonyl}-1-benzofuran-2-carboxamide] | 4.11e-07 | 1.42e-07 | – | –
1.55e-08 | 13.7 | 5.81 | > 2e-05 | – | – | CCOc1ccc(C(C)C)cc1S(=O)(=O)NC(=O)c1cc2c(F)cc(N3CC(F)C3)cc2o1 [Example 151, N-[2-ethoxy-5-(propan-2-yl)benzene-1-sulfonyl]-4-fluoro-6-(3-fluoroazetidin-1-yl)-1-benzofuran-2-carboxamide] | 6.63e-08 | 5.67e-08 | – | –
2.76e-08 | 9.82 | 3.72 | 1.77e-05 | – | – | CC(C)(C)c1ccc(OC2CC2)c(S(=O)(=O)NC(=O)c2cc3c(F)cc(N4CCC4)cc3o2)c1 [Example 224, 6-(Azetidin-1-yl)-N-[(5-(tert-butyl)-2-cyclopropoxyphenyl)sulfonyl]-4-fluorobenzofuran-2-carboxamide] | 1.14e-07 | 7.5e-08 | – | –
3.23e-08 | 19.6 | 13.7 | > 2e-05 | – | – | Cc1ccc2cccc(S(=O)(=O)NC(=O)c3cc4c(F)cc(N5CCC5)cc4o3)c2n1 [Example 130, 6-(Azetidin-1-yl)-4-fluoro-N-(2-methylquinoline-8-sulfonyl)-1-benzofuran-2-carboxamide] | 2.36e-07 | 8.86e-08 | – | –
2.76e-08 | 9.82 | 3.72 | 1.77e-05 | – | – | CC(C)(C)c1ccc(OCc2ccccc2)c(S(=O)(=O)NC(=O)c2cc3c(F)cc(N4CCC4)cc3o2)c1 [Example 225, 6-(Azetidin-1-yl)-N-[(2-(benzyloxy)-5-(tert-butyl)phenyl]sulfonyl)-4-fluorobenzofuran-2-carboxamide] | 1.14e-07 | 7.5e-08 | – | –
1.11e-07 | 20.1 | 5.07 | > 2e-05 | – | – | COc1ccc(-c2cn(C)nc2C)cc1S(=O)(=O)NC(=O)c1cc2c(F)cc(N3CCC3)cc2o1 [Example 195, 6-(Azetidin-1-yl)-N-[5-(1,3-dimethyl-1H-pyrazol-4-yl)-2-methoxybenzene-1-sulfonyl]-4-fluoro-1-benzofuran-2-carboxamide] | 8.37e-07 | 1.99e-07 | – | –
3.83e-08 | 27.6 | 4.79 | > 2e-05 | – | – | CC(C)Oc1ccc(C(C)(C)C)cc1S(=O)(=O)NC(=O)c1cc2c(F)cc(N3CCC3)cc2o1 [Example 229, 6-(Azetidin-1-yl)-N-[(5-(tert-butyl)-2-isopropoxyphenyl)sulfonyl]-4-fluorobenzofuran-2-carboxamide] | 1.8e-07 | 2.18e-07 | – | –
